Data on 15 compounds can be found in patent publication US9199975B2, “Biaryl imidazole derivatives for regulating CYP17” (Asana Biosciences, LLC, priority 2011, dated 2015).

One experiment deals with T1, human CYP17 (Homo sapiens, UniProt P05093).
T1 sequence (P05093 1-508): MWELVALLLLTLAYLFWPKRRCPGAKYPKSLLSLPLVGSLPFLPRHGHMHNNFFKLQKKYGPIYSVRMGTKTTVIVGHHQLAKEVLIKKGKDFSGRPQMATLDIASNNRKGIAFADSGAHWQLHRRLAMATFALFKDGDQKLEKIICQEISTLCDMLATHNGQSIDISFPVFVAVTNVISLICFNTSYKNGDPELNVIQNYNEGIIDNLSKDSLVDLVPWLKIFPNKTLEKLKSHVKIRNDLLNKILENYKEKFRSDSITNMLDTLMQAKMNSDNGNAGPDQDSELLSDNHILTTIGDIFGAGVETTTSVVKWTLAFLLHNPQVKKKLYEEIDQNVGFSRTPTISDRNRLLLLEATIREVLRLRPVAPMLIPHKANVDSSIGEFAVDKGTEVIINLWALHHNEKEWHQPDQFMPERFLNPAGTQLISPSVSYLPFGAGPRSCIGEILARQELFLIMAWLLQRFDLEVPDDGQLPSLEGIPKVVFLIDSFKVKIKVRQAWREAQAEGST
As to the kind of experiment: Cell-based human CYP17 inhibition assay, LNCap-CYP17 cells. The note with it: 16 hours at 37° C. On the procedure: Cell-Based Human CYP17 Inhibition Assay
A. Materials • 1. H295R Adrenocortical Carcinoma Cells and Growth Media: The media for the H295R Adrenocortical carcinoma cells [NCI-H295A, ATCC Number CRL-2128, American Type Culture Collection, Manassas, Va., US] (500 mL) was a DMEM:F12 Mix 1:1 with 5% […] BD Nu Serum; 1% (5 mL) ITS+Premix [BD Biosciences] and 1% Penstrep. • 2. LNCap-CYP17 Cells and Growth Media: Full length hCYP17a1 gene (NCBI Reference Sequence: NM_000102.3) was cloned in pCDNA3.1(+) vector between HindIII and XhoI site. The pCDNA3.1(+) vector contains the Neomycin resistance gene and was used for selection of stable cell line. The hCYP17a1 containing pCDNA3.1(+) was transfected into LNCap cells to create the LNCap-CYP17 cell line. The media for the LNCaP-CYP17 cells was RPMI 1640, 10% FBS, 1% PenStrep, Geneticin 400 μg/mL.
The H295R cells or LNCaP-hCYP17 cells were subcultured and 30,000 cells per well were seeded in a poly-d lysine plate and incubated overnight at 37° C. The next day the media was removed and 200 µL of fresh media with ^3H3-17α-hydroxy-pregnenolone (1:1000) was added. 50 μL of serially diluted compounds from a 5× plate (5 times the final desired concentration) was added. The working concentration range for active, new compounds started from a high concentration of […] with 3-fold serial dilutions generating up to 10 concentrations. The serial dilution in the 100× plate (in DMSO) and the stamping of a 5× plate (in media) from the 100× plate were carried out using a TECAN liquid handling device.
The plates were incubated overnight (16 hours) at 37° C. After 16 hours, the media was removed (approximately 220 μL) and an equal amount of chloroform was added, mixed and incubated for 30 minutes at 4 degrees. The plate was centrifuged at 4000 rpm for 15 minutes at 4° C., following which the top aqueous layer was carefully removed and added into a new deep well plate. An equal volume of activated 5% charcoal was added, mixed and incubated for 30 minutes at 4° C. The plate was then centrifuged at 4000 rpm for 15 minutes at 4° C. and the top layer carefully separated, avoiding any charcoal contamination, and placed in a white, clear bottom plate (plate cat #3610, Corning Life Sciences). An equal volume of Microscint™ 40 was added and mixed well. Following the incubation for 30 minutes, readings for the radiotracer were taken using a Microbeta® trilux.

The test system of experiment [1] is testosterone production in H295R cells. The experiment in a line: Cell-based functional assay for testosterone production in H295R cells. The note with it: Homo sapiens, NCI-H295R, 72 hours, testosterone ELISA, read-out: Testosterone (human H295R adrenal cells). How it is done:
Cell-based Functional Assay for Testosterone Production
H295R cells (ATCC Number CRL-2128) were subcultured, seeded (30,000 cells per well in a poly-d lysine plate) and left overnight at 37° C. The next day (after approximately 24 hours), the media were removed and 200 μL fresh media were added. Then, 50 μL of serially diluted compounds was added from a 5× plate. The serial dilution in the 100× plate (in DMSO) and the stamping of a 5× plate (in media) from the 100× plate were carried out using a TECAN liquid handling device. The plate was incubated at 37° C. for 72 hours. After incubation, the media was removed, diluted 5 to 10 times with calibration diluent RD5-48, and the assay performed as per manufacturer's protocol (Parameter Testosterone Assay, Cat. No. KGE010, R&D systems; http://www.rndsystems.com/pdf/KGE010.pdf).
(In an ELISA, binding on a coated surface is turned into a signal by an enzyme label.)

At human CYP17, `CCOC(=O)c1ccc(-c2ccc(C(CC)n3ccnc3)nc2)cc1` (stereo not drawn) [Example 5, Ethyl 4-(6-(1-(1H-imidazol-1-yl)propyl)pyridin-3-yl)benzoate] returned an IC50 of 201 to 10000 nM. Still for that read-out and setting: next, `CCC(c1ccc(-c2cccc(OC)c2)cn1)n1ccnc1` (stereo not drawn) [Example 7, 2-(1-(1H-imidazol-1-yl)propyl)-5-(3-methoxyphenyl)pyridine]: 50 to 200 nM; `CCC(c1ccc(-c2cccc(O)c2)cn1)n1ccnc1` (stereo not drawn) [Example 8, 3-(6-(1-(1H-imidazol-1-yl)propyl)pyridin-3-yl)phenol]: 50 to 200 nM. In the case of `CC(c1ccc(-c2ccc(F)cc2)cn1)n1ccnc1` (stereo not drawn) [Example 12, 2-(1-(1H-imidazol-1-yl)ethyl)-5-(4-fluorophenyl)pyridine], the IC50 in experiment [1] is 201 to 10000 nM. The same measure, in the same setting: the result for `CC(c1ccc(-c2ccc(=O)n(C)c2)s1)n1ccnc1` (stereo not drawn) [Example 20, 5-(5-(1-(1H-imidazol-1-yl)ethyl)thiophen-2-yl)-1-methylpyridin-2(1H)-one] reads less than 50 nM.

Regarding `CC(c1ccc(-c2ccc(=O)n(C(C)C)c2)s1)n1ccnc1` (stereo not drawn) [Example 21, 5-(5-(1-(1H-imidazol-1-yl)ethyl)thiophen-2-yl)-1-isopropylpyridin-2(1H)-one], in experiment [1], the IC50 fell in the range of 201 to 10000 nM.

`CC(c1cnc(-c2ccc(C#N)cc2)s1)n1ccnc1` (stereo not drawn) [Example 22, 4-(5-(1-(1H-imidazol-1-yl)ethyl)thiazol-2-yl)benzonitrile]: the IC50 in experiment [1] is 201 to 10000 nM. In the case of `CCC(c1ccc(-c2ccc(OC)cc2)o1)n1ccnc1` (stereo not drawn) [Example 27, 1-{1-[5-(4-Methoxy-phenyl)-furan-2-y]-propyl}-1H-imidazole], at human CYP17, the IC50 was in the range of 50 to 200 nM. Regarding `CC(c1cnc(-c2ccc(F)cc2F)s1)n1ccnc1` (stereo not drawn) [Example 28, 2-(2,4-Difluoro-phenyl)-5-(1-imidazol-1-yl-ethyl)-thiazole], the IC50 in experiment [1] was 50 to 200 nM.

Take `CCC(c1ccc(-c2ccc(O)cc2)o1)n1ccnc1` (stereo not drawn) [Example 30, 4-[5-(1-Imidazol-1-yl-propyl)-furan-2-yl]-phenol]: the IC50 against human CYP17 is less than 50 nM.

Consider `CCC(c1cnc(-c2ccc(OC)cc2)s1)n1ccnc1` (stereo not drawn) [Example 35, 5-(1-Imidazol-1-yl-propyl)-2-(4-methoxy-phenyl)-thiazole], for which, on human CYP17, the IC50 was in the range of 201 to 10000 nM.

In turn, `CCC(c1ccc(-c2ccccc2O)cn1)n1ccnc1` (stereo not drawn) [Example 37, 2-[6-(1-Imidazol-1-yl-propyl)-pyridin-3-yl]-phenol] came in with an IC50 against human CYP17 of 201 to 10000 nM.

For `CC(c1ccc(-c2ccc(O)cc2)s1)n1ccnc1` (stereo not drawn) [Example 49, 4-[5-(1-Imidazol-1-yl-ethyl)-thiophen-2-yl]-phenol], the IC50 on human CYP17 was 50 to 200 nM. The same measure, in the same setting: next, `CCC(c1ccc(-c2ccccc2OC)cn1)n1ccnc1` (stereo not drawn) [Example 56, 2-(1-Imidazol-1-yl-propyl)-5-(2-methoxy-phenyl)-pyridine]: 201 to 10000 nM. The same measure, in the same setting: next, `CCC(c1cnc(-c2ccc(O)cc2)s1)n1ccnc1` (stereo not drawn) [Example 60, 4-[5-(1-Imidazol-1-yl-propyl)-thiazol-2-yl]-phenol]: 201 to 10000 nM.
